# From publication PMC7150891, “Mertansine Inhibits mRNA Expression and Enzyme Activities of Cytochrome P450s and Uridine 5′-Diphospho-Glucuronosyltransferases in Human Hepatocytes and Liver Microsomes” (Pharmaceutics, 2020)
# “Also recorded” adds a separate entry of the source. Read-outs that look alike come from different tables or passages of the source.
# Legend:
# CYP2D6 = system: CYP2D6; design: method as in PMID 25048520, PMID 22752008; details: human liver microsomes, competitive; read-out: Ki, CYP2D6-mediated dextromethorphan O-demethylation; cited from earlier work
# UGT1A4 mRNA = UGT1A4 mRNA level in human hepatocytes after 48 h treatment (RT-PCR); details: for IC50: read-out: IC50, suppression of UGT1A4 mRNA expression, 1.25–2500 nM
# [1] = system: CYP2B6 mRNA (suppression of expression); assay: CYP2B6 mRNA level in human hepatocytes after 48 h treatment (RT-PCR); format: cell-based; details: 1.25–2500 nM
# Description: (§1) 12.5 (Systat Software, Inc.; San Jose, CA, USA). […] 1.1 (Systat Software, Inc.).
# CYP2B6 mRNA = assay: as above; format: cell-based; details: Mean ± SD of three human hepatocyte lots, 48 h, 1.25–2500 nM, read-out: IC50, suppression of CYP2B6 mRNA expression
# Description: as §1
# [2] = rats, intravenous [3H]-mertansine 0.2 mg/kg, cited from earlier work
# UGT1A9 = target: T1, UGT1A9 (Homo sapiens, UniProt O60656); assay: Inhibition of UGT1A9-catalyzed mycophenolic acid β-D-glucuronidation in ultrapooled human liver microsomes; format: in vitro ADME
# T1 construct: ultrapooled human liver microsomes (0.2 mg/mL); from tissue; host or cells: human liver microsomes (ultrapooled)
# Description: (§2) The inhibitory potential of mertansine on UGT1A1, UGT1A3, UGT1A4, UGT1A6, UGT1A9, and UGT2B7 activities was evaluated using liquid chromatography–tandem mass spectrometry (LC-MS/MS) with a cocktail of UGT substrates and ultrapooled human liver microsomes. Each incubation mixture was prepared to a final volume of 100 μL as follows: ultrapooled human liver microsomes (0.2 mg/mL), 5 mM UDPGA, 10 mM magnesium chloride, alamethicin (25 μg/mL), 50 mM Tris buffer (pH 7.4), various concentrations of mertansine in methanol (final concentrations of 0.01–50 μM), and the cocktail sets of UGT enzyme-specific substrates. Two cocktail sets were used: set A contained 0.5 μM SN-38 for UGT1A1, 2 μM chenodeoxycholic acid for UGT1A3, and 0.5 μM trifluoperazine for UGT1A4; and set B contained 1 μM N-acetylserotonin for UGT1A6, 0.2 μM mycophenolic acid for UGT1A9, and 1 μM naloxone for UGT2B7. The reactions were initiated by adding UDPGA and incubated in a shaking water bath for 60 min at 37 °C. Reactions were terminated by adding 50 μL of ice-cold acetonitrile containing internal standards (IS, propofol glucuronide for set A and meloxicam for set B). Incubation mixtures were centrifuged at 13,000 g for 8 min at 4 °C. Next, 50 μL of each supernatant of sets A and B was mixed, and aliquots (5 μL) were analyzed using LC-MS/MS. […]
# [3] = MTS colorimetric cytotoxicity assay in human hepatocytes; format: cell-based; details: human hepatocytes (lot 319), 48 h mertansine treatment (1.25–6250 nM), lot 319, MTS
# Description: The hepatocytes were incubated with 0.0125, 0.0625, 0.125, 0.250, 0.625, 1.25, 2.5, and 6.25 μM mertansine in triplicate for 48 h at 37 °C in 5% CO2. The medium was exchanged with fresh medium containing mertansine every 24 h. Then, 20 μL of MTS solution was added to each well and the plate was incubated for 1 h at 37 °C in 5% CO2. The absorbance of the reaction mixture was measured at 492 nm.
# UGT1A6 = target: T2, UGT1A6 (Homo sapiens, UniProt P19224); assay: Inhibition of UGT1A6-catalyzed N-acetylserotonin β-D-glucuronidation in ultrapooled human liver microsomes; format: in vitro ADME
# T2 construct: ultrapooled human liver microsomes (0.2 mg/mL); from tissue; host or cells: human liver microsomes (ultrapooled)
# Description: as §2
# [4] = human hepatocytes Lot 319, 48 h
# [5] = human hepatocytes Lot 321, 48 h
# [6] = human hepatocytes Lot 361, 48 h
# [7] = human liver microsomes, mertansine at 50 µM
# T2 sequence (P19224 27-532): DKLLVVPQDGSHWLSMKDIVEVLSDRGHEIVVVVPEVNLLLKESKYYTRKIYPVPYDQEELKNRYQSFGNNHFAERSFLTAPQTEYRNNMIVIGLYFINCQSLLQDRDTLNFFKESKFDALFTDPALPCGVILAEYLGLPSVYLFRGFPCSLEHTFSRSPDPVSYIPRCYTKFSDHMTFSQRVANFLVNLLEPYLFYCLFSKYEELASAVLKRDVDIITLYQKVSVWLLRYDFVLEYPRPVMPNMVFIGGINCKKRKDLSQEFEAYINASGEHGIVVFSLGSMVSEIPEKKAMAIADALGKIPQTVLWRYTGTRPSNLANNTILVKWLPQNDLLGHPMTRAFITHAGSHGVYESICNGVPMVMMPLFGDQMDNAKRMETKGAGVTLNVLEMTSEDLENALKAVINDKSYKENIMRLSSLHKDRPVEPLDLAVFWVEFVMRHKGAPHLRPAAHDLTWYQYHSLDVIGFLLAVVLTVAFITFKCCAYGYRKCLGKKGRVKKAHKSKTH
# T1 sequence (O60656 26-530): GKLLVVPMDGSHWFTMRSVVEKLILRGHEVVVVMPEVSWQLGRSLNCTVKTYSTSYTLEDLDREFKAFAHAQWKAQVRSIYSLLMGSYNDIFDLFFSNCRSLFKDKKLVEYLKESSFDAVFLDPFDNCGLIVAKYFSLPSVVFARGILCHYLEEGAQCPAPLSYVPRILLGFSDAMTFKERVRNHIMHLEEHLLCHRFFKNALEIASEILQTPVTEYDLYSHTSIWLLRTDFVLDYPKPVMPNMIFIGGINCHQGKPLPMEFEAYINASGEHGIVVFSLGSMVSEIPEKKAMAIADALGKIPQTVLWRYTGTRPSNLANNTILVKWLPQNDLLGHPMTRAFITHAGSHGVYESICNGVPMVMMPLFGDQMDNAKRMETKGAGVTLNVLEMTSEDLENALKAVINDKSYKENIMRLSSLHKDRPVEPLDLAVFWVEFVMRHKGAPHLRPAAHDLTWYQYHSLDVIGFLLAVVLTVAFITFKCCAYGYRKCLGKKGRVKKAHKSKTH
structure (smiles),measurement,setting,value
"COc1cc2cc(c1Cl)N(C)C(=O)CC(OC(=O)C(C)N(C)C(=O)CCS)C1(C)OC1C(C)C1CC(O)(NC(=O)O1)C(OC)C=CC=C(C)C2 (centres unmarked) [mertansine, Mertansine]",Ki,CYP2D6,14000 nM
same,IC50 at 48 h,UGT1A4 mRNA; human,> 2500 nM
same,IC50,UGT1A4 mRNA; [4],> 2500 nM
same,IC50,UGT1A4 mRNA; [5],> 2500 nM
same,IC50,UGT1A4 mRNA; [6],> 2500 nM
same,IC50 at 48 h,[1]; [4],25 nM
same,IC50 at 48 h,[1]; [5],57.8 nM
same,IC50 at 48 h,[1]; [6],27.6 nM
same,IC50 at 48 h,CYP2B6 mRNA,36.8 ± 18.3 nM
same,Tissue-to-blood radioactivity ratios,"[2]; highly perfused organs, for 24 h",1~11
same,Biliary excretion of dosed radioactivity,[2]; over 72 h,~ 46%
same,Dosed radioactivity recovered in urine,[2]; over 120 h,5%
same,Inhibition of UGT1A9 enzyme activity,UGT1A9; [7],no inhibition; also recorded: negligibly inhibited
same,"IC50, mycophenolic acid β-D-glucuronidation (UGT1A9)","UGT1A9; ultrapooled human liver microsomes, 0.2 µM mycophenolic acid (cocktail)",No inhibition
same,viability at 48 h,[3],> 96.2%
same,Inhibition of UGT1A6 enzyme activity,UGT1A6; [7],no inhibition; also recorded: negligibly inhibited
same,"IC50, N-acetylserotonin β-D-glucuronidation (UGT1A6)","UGT1A6; ultrapooled human liver microsomes, 1 µM N-acetylserotonin (cocktail)",No inhibition
